From PMC5973626, “A secreted Heat shock protein 90 of Trichomonas vaginalis” (PLoS Neglected Tropical Diseases, 2018)

What was measured:
Type in all cases: binding
[1] = target: T1, TV560 (cytosolic Hsp90, TVAG_153560) (Trichomonas vaginalis, UniProt A2EPR1); assay: intrinsic tryptophan fluorescence quenching; also ATPase inhibition (IC50 […])
T1 construct: full-length, 6x-His tag fusion expressed in E. coli (721 amino acids)

[2] = target: T2, TV910 (Grp94 ortholog, TVAG_378910) (Trichomonas vaginalis, UniProt A2DB82); assay: as above
T2 construct: 6x-His tag fusion expressed in E. coli

[3] = target: T2, TV910 (Grp94 ortholog, TVAG_378910); assay: intrinsic tryptophan fluorescence quenching; also ATPase kinetics (KM […])
[4] = target: T1, TV560 (cytosolic Hsp90, TVAG_153560); assay: as above

T1 sequence (A2EPR1 entry or part of it): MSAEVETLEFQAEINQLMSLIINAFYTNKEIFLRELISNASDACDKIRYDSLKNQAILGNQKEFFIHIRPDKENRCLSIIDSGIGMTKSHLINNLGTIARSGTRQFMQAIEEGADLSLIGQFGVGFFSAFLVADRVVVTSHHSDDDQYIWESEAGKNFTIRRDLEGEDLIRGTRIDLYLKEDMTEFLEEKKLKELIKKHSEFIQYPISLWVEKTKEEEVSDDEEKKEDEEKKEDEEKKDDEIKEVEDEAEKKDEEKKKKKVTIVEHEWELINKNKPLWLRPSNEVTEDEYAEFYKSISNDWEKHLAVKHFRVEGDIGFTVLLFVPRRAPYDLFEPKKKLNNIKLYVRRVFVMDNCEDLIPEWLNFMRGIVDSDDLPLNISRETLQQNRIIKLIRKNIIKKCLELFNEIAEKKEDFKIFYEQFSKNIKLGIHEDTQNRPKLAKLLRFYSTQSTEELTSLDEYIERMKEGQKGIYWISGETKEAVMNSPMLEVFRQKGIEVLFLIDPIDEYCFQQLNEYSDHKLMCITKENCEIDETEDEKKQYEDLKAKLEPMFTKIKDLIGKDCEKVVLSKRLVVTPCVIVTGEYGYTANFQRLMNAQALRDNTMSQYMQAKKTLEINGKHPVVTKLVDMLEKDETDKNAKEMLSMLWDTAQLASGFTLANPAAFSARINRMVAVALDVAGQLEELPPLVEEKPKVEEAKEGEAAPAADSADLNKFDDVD
T2 sequence (A2DB82 entry or part of it): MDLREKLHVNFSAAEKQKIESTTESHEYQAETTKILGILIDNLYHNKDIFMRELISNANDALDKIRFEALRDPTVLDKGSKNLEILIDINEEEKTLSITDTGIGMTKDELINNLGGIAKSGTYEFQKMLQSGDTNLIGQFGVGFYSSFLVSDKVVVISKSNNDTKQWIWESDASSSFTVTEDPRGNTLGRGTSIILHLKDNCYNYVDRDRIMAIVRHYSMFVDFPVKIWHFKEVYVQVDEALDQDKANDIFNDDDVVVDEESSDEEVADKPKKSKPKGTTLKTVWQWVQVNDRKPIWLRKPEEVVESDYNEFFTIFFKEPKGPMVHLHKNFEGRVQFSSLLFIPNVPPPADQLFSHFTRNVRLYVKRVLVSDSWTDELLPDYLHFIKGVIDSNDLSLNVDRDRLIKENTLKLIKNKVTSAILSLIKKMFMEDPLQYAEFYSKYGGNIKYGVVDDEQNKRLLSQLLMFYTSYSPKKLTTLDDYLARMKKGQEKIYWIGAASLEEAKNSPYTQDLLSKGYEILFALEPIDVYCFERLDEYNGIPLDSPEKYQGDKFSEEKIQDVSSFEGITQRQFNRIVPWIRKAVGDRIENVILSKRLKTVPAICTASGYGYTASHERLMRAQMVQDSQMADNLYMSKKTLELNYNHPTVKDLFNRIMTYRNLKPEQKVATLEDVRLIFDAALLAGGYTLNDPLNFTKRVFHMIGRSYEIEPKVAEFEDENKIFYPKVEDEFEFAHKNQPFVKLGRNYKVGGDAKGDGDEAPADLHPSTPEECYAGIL

Row | Structure (SMILES) | Kd [1] [µM] | Kd [2] [µM] | Kd [3] [µM] | Kd [4] [µM]
1 | C=CCNC1=C2C[C@@H](C)C[C@H](OC)[C@H](O)[C@@H](C)/C=C(\C)[C@H](OC(N)=O)[C@@H](OC)/C=C\C=C(/C)C(=O)NC(=CC1=O)C2=O [17-AAG] | 11.5 | 15.7 |  | 
2 | Nc1ncnc2c1ncn2[C@@H]1O[C@H](COP(=O)(O)OP(=O)(O)OP(=O)(O)O)[C@@H](O)[C@H]1O [ATP] |  |  | 722 | 538
